Data taken from article PMC5620277, “The histone methyltransferase EZH2 as a druggable target in SHH medulloblastoma cancer stem cells” (Oncotarget, 2017).
Where two headings read alike, the source gives them in different places.

What was measured:
[1] = test system: hMB-SLCs; experiment: Cell viability, MTS assay, hMB-SLCs; assay type: cell-based, human
Experimental: (§1) In both cell lines, we determined the lowest useful dose of MC3629 (5 μM) and the minimum effective time (48 h) (Figure 2D, 2E and Supplementary Figure 4A and 4B for data at 24 and 72 h). We next evaluated the performance of MC3629 on MB-SLCs in terms of cell viability in regards to other EZH2i in use, confirming the dose selection (Supplementary Figure 4C).
(§2) To evaluate cell viability cells were plated at a density of 5×10^3 cells/well in 96-well plates and were incubated with MTS solution (CellTiter 96® AQueous One Solution Promega).

[2] = test system: hMB-SLCs; experiment: Western Blot of H3K27me3, PCNA, cleaved caspase 3 in hMB-SLCs; assay type: cell-based, human; settings: 5 μM, 48 h
Experimental: as §2
(§3) Western blots were performed according to standard procedures. Briefly, protein lysates were prepared using RIPA buffer with fresh protease inhibitors. Lysates were separated on SDS polyacrylamide gels. Proteins were transferred on nitrocellulose membrane (0.45 micron) (PerkinElmer). Membranes were blocked for 1 h at room temperature in 5% nonfat dry milk and incubated overnight at 4°C with antibodies against EZH2 (4905S Cell signaling), H3K27me3 (07-449 Millipore), PCNA (2586 Cell signaling), ACTIN (I-19 sc-1616; Santa Cruz Biotechnology), GAPDH (ab9484, Abcam), cleaved CSP-3 (D-175 9661S; Cell Signaling) and H3 (ab1971, Abcam). HRP-conjugated secondary antibodies (Santa Cruz Biotechnology) were used in combination with enhanced chemiluminescence (ECL Amersham).

[3] = test system: H3K27me3 in cerebellum and brain; experiment: H3K27me3 levels in cerebellum and brain of wild type mice after i.p. treatment; assay type: in vivo, mouse
Experimental: CD1 wild-type mice were treated intra-peritoneally with 20 μMoles/Kg of MC3629 (n=8 for each group). Treatment was performed at the age of 8 and 10 days post natal and mice were sacrificed at 12 days post natal. Brain and cerebellum tissues were collected for analysis.

[4] = biological target: PRMT1 (Homo sapiens, UniProt Q99873); experiment: Methyltransferase panel: PRMT1; assay type: biochemical; settings: substrate histone H4
Experimental: (§4) MC3629 was tested in the cell free enzymatic assay (EZH2/PRC2) in 10-dose IC50 mode with 2-fold serial dilution starting from 400 μM solution, using various histone substrates (histone H3/H4 octamer, histone H3/H4 tetramer, histone H3, and core histone) and SAM as the co-substrate. […] (Figure 2B, and Supplementary Figure 2).
(§5) The appropriate methyltransferase (MT) substrate (0.05 mg/ml core histone for EZH1 complex, 0.05 mg/ml oligonucleosomes for DOT1L, 5 μM histone H3 (1-21) peptide for G9a, 0.05 mg/ml nucleosomes for MLL1 complex, 0.05 mg/ml core histone for SET7/9, 5 μM histone H4 for PRMT1, and 0.001 mg/ml poly(dI-dC) for DNMT1) was added in freshly prepared Reaction Buffer (50 mM Tris-HCl (pH 8.5), 5 mM MgCl2, 50 mM NaCl, 0.01% Brij35, 1 mM DTT, 1% DMSO). The MT enzyme was delivered into the substrate solution and the mixture was mixed gently. Afterwards, the tested compound dissolved in DMSO was delivered into the enzyme/substrate reaction mixture by using Acoustic Technology (Echo 550, LabCyte Inc. Sunnyvale, CA) in nanoliter range, and 1 μM ^3H-SAM was also added into the reaction mixture to initiate the reaction. The reaction mixture was incubated for 1 h at 30°C and then it was delivered to filter-paper for detection. The data were analyzed using Excel and GraphPad Prism software for IC50 curve fits (for EZH1 complex).

[5] = test system: mMB-SLCs; experiment: Western Blot of H3K27me3, PCNA, cleaved caspase 3 in mMB-SLCs; assay type: cell-based, mouse; settings: 48 h
Experimental: Afterwards, we tested the ability of MC3629 (at 0.5, 5, and 25 μM) to inhibit the EZH2 enzymatic activity on a cell-based assay in vitro. The lower significant MC3629 dosage to decrease the H3K27me3 level in MB-SLCs was 5 μM (Figure 2C).
as §2, §3

[6] = test system: mMB-SLCs; experiment: Cell viability, MTS assay, mMB-SLCs; assay type: cell-based, mouse
Experimental: as §1, §2

[7] = biological target: MLL1 complex (Homo sapiens, UniProt Q03164); experiment: Methyltransferase panel: MLL1 complex; assay type: biochemical; settings: substrate nucleosomes
Experimental: as §4, §5

[8] = biological target: T1, EZH2/PRC2 (Homo sapiens, UniProt Q15910); experiment: EZH2/PRC2 cell free enzymatic assay (3H-SAM, filter-paper detection); assay type: biochemical
T1 construct: (amino acids 2-end) with N-terminal His tag; His tag (N); host or cells: baculovirus expression system
Experimental: as §4
Reagents: Reaction buffer; 50 mM Tris-HCl (pH 8.0), 50 mM NaCl, 1 mM EDTA, 1 mM DTT, 1 mM PMSF, 1% DMSO. Reaction Conditions: EZH2: Complex of human EZH2 (GenBank Accession No. NM_004456), (amino acids 2-end) with N-terminal His tag, MW= 86 kDa, human EED (NM_003797) (a-a 2-end) with N-terminal Flag tag, MW= 51 kDa, human SUZ12 (NM_015355) (a-a 2-end) with N-terminal His tag, MW = 87 kDa, Human AEBP2 (NM_153207) (a-a 2-end) with N-terminal His tag, MW= 53 kDa, and human RbAp48 (NM_005610) (a-a 2-end) with N-terminal His tag, MW = 48 kDa, co-expressed in baculovirus expression system. Substrate: 5 μM histone H3/H4 tetramer. Methyl donor: 1 μM S-adenosyl-L-[methyl-^3H]methionine (^3H-SAM). Enzyme: 100 nM EZH2 complex. Reaction Procedure: the indicated substrate was dissolved in freshly prepared Reaction Buffer; EZH2 was delivered into the substrate solution and mixed gently. The compound was dissolved in DMSO to a stock of 20 mM and was tested in a 10-dose IC50 mode with 2-fold serial dilution starting at 400 μM. The compound was delivered in DMSO into the EZH2 reaction mixture by using Acoustic Technology (Echo 550, LabCyte Inc. Sunnyvale, CA) in nanoliter range, and incubated for 15 min; ^3H-SAM was delivered into the reaction mixture to initiate the reaction; the reaction mixture was incubated for 1 h at 30°C and then delivered to filter-paper for detection; data were analyzed using Excel and GraphPad Prism 5 software for IC50 curve fits. For SAM competition experiments, the same procedure was used with different SAM concentration (1, 2.5. 5, and 10 μM) and H3/H4 octamer as the substrate.

[9] = test system: DAOY-SLCs; experiment: Cell viability, MTS assay, DAOY-SLCs; assay type: cell-based; settings: 5 μM, after 48 h
Experimental: as §2

[10] = dose- and time-dependent experiments

Cc1cc(C)c(CNC(=O)c2cnn(-c3ccccc3)c2C)c(=O)[nH]1 [MC3629, N-((4,6-dimethyl-2-oxo-1,2-dihydropyridin-3-yl)methyl)-5-methyl-1-phenyl-1H-pyrazole-4-carboxamide]
minimum effective time, cell viability [1]: 48 h
cell viability, combination with shEZH2 versus shEZH2 alone ([1]; 5 μM, 48 h): did not display any additive effect
lowest useful dose, cell viability [1, 10]: 5 µM
H3K27me3 and PCNA protein levels [2]: significantly impaired
apoptosis, level of cleaved caspase 3 [2]: induced apoptosis
H3K27me3 levels in brain ([3]; 20 μMol/Kg intra-peritoneal): reduced levels
H3K27me3 levels in cerebellum ([3]; 20 μMol/Kg intra-peritoneal, twice/week): significant reduction
ability to cross the BBB in vivo ([3]; inferred from reduced H3K27me3 in cerebellum and brain, 20 μMol/Kg i.p.): crosses the BBB
inhibition at 200 µM [4]: 5.7%
H3K27me3 and PCNA protein levels ([5]; mMB-SLCs, 5 μM): significantly impaired
apoptosis, level of cleaved caspase 3 ([5]; mMB-SLCs, 5 μM): induced apoptosis
lower significant dosage to decrease the H3K27me3 level ([5]; tested at 0.5, 5, 25 μM): 5 µM
minimum effective time, cell viability [6]: 48 h
lowest useful dose, cell viability [6, 10]: 5 µM
inhibition at 200 µM [7]: 20.7%
mechanism of inhibition, SAM competition experiments ([8]; histone H3/H4 octamer substrate, SAM 1, 2.5, 5, 10 μM): SAM-dependent mechanism of inhibition
IC50 ([8]; histone H3/H4 tetramer substrate, value printed in Figure 2B, read-out: IC50, EZH2/PRC2): 5.27 µM
IC50 ([8]; range over histone substrates (histone H3/H4 octamer, H3/H4 tetramer, histone H3, core histone), SAM co-substrate, 10-dose, 2-fold dilution from 400 μM, read-out: IC50 values, EZH2/PRC2): 5.27 to 15.4 µM
cell viability [9]: impaired cell viability
